Tests used:
[1] = tested on: HER2-positive breast cancer cells; assay: Cell growth assay (live cell count); assay type: cell-based; conditions: Homo sapiens, 72 h; 3 days of culture; read-out: IC50 for effect on HER2-positive breast cancer cells
Source text: (§1) For live cell counts, cell growth on 96-well plates were fixed 4% formaldehyde and counterstained with Hoechst 33342 for nuclei.

[2] = tested on: HER2-positive breast cancer cells; assay: Apoptosis assay (Alexa Fluor 488 annexin V)
BT474 cells [3] = assay: Cell growth assay (live cell count), monolayer culture; assay type: cell-based, human; conditions: 0.01 μM, 3 days
Source text: as §1

[4] = tested on: BT474 human breast cancer cells; assay: Cell cycle analysis (propidium iodide, flow cytometry); assay type: cell-based
Description: After trypsinized, cells were collected and washed with cold PBS. Cells were fixed with 70% ethanol, washed and stained with PI/Triton X-100 staining solution (0.1% triton X-100, 2 μg/ml PI and 0.2 mg/ml DNAse-free RNAse) for 30 min. Samples were analyzed by flow cytometry.

SKBR3 cells [5] = assay: Cell growth assay (live cell count); assay type: cell-based, human; conditions: 1 μM, 3 days
Source text: as §1

xenografts of SKBR3 = tested on: xenografts of SKBR3
Description: NOD/SCID mice were purchased from Jackson Lab (The Jackson Laboratory, Bar Harbor, Me., USA). All mouse procedures were approved by the Animal Care and Use Committees of SUNY Albany and performed in accordance with institutional policies.
For xenograft tumor studies, 1×10^6 SKBR3 cells were suspended in 50 μl Matrigel (BD Biosciences) diluted 1:2 with DMEM and injected into mammary fat pad. Treatment began when tumors were palpable. […] The tumor volume in mm^3 is calculated by the formula: volume=(width)^2×length/2 every 7 days.

[6] = tested on: EGFR, HER2, Her3 and ErbB4; assay: Western blotting of EGFR family activation and downstream Akt/Erk in BT474 cells; assay type: cell-based, human; conditions: 2 hours; for phosphorylation (activation) of EGFR family: ibrutinib 0.05 or 0.1 μM, AVL-292 0.1 μM
Description: (§2) Immunoblotting was performed essentially as described previously. Equal amounts of proteins were used. Antibodies used were anti-EGFR (1:1000,), anti-HER2 (1:1000,), anti-ERBB3, ERBB4 antibody, anti-BTK, anti-AKT, ERIK, anti-PLCγ1, PLCγ2 and anti-PARP (1:1000, cell signaling), anti-Flag antibody (1:1000, Sigma), anti-rabbit IgG-HRP and mouse IgG-HRP (1:5000, Jackson ImmunoResearch).

AKT = assay: Immunoblots of NRG1 effect on HER2, AKT and ERK activation in BT474 and SkBR3 cells; assay type: cell-based, human; conditions: 2 h
Description: as §2

[7] = tested on: HER2-positive breast cancer cells; assay: Live cell count with NRG1 or EGF (growth factor driven rescue)
BT474 cells [8] = assay: Nine days NRG1 co-treatment, crystal violet staining; assay type: cell-based, human; conditions: 9 days, drug 1 uM, NRG1 50 ng/ml
Description: (§3) Cells were cultured in 6-well plates for indicated days. Cells were fixed with 3.7% paraformaldehyde for 10 min and washed with PBS. After wash, cells were stained with 0.05% CV for 30 min Whole plate was washed with tape water. Dry plate was added with 0.5 ml methanol to solubilize the dye. Taking an aliquot to 96-well plate and reading CV stain with OD 540. Tumorospheres were counted under low magnification.

SKBR3 cells [9] = assay: as above; assay type: cell-based, human; conditions: 9 days, drug 1 uM, NRG1 50 ng/ml
Description: as §3

breast cancer cells = conditions: cited from earlier work
BTK-C = target: T1, BTK-C (Homo sapiens, UniProt Q06187); assay: Inhibition of BTK-C kinase activity / activating phosphorylation (FIG. 8A-C); assay type: cell-based
T1 construct: Flag; expressed in transfected cells; host or cells: SKBR3-BTK-C (SKBR3 human breast cancer cells expressing BTK-C)
T1 sequence (Q06187 1-693 isoform Q06187-2): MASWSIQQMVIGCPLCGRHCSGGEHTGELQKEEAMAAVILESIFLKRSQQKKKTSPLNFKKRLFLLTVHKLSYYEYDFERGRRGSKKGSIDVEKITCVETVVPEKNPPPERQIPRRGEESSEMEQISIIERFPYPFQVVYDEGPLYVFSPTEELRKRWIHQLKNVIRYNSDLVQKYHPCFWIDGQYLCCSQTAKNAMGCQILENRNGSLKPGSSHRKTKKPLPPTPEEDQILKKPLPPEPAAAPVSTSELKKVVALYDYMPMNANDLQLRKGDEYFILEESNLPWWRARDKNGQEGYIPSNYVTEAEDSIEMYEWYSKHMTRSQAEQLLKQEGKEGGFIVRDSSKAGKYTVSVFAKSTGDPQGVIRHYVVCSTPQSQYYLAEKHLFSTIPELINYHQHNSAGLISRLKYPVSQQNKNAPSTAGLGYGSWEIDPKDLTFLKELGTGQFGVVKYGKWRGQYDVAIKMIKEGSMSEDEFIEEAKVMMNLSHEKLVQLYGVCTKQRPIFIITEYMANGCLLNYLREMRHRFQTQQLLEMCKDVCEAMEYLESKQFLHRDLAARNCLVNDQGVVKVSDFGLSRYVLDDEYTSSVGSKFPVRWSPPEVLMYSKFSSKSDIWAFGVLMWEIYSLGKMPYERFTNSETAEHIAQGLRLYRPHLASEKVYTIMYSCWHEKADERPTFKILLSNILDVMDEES

C=CC(=O)N1CCC[C@@H](n2nc(-c3ccc(Oc4ccccc4)cc3)c3c(N)ncnc32)C1 [ibrutinib]
IC50 [1]: 0.03 µM
apoptosis induction compared with lapatinib ([2]; HER2-positive breast cancer cells): 1.5 fold
cell population, % of control (BT474 cells [3]; BT474 monolayer): 30 % of control
decrease in the number of cells in the S phase ([4]; 0.03 μM, compared with controls): 50%
reduction of cell numbers (SKBR3 cells [5]): more than 80%
tumor volume smaller than vehicle control / inhibition of tumor growth (xenografts of SKBR3; 12 mg/kg/day p.o., day 28): 45%

Cc1c(NC(=O)c2ccc(C(C)(C)C)cc2)cccc1-c1cn(C)c(=O)c(Nc2ccc(C(=O)N3CCOCC3)cc2)n1 [CGI-1746]
phosphorylation (activation) of EGFR family [6]: but not AVL-292 and CGI-1746, efficiently blocks activation of EGFR, HER2, ErbB3, and ErbB4

CS(=O)(=O)CCNCc1ccc(-c2ccc3ncnc(Nc4ccc(OCc5cccc(F)c5)c(Cl)c4)c3c2)o1 [lapatinib]
re-activation of AKT by NRG1 (AKT; co-treatment with NRG1 50 ng/ml): NRG1 re-activates AKT without activation of HER2
activation of HER2, AKT and ERK (AKT; drug alone): blocked
number of apoptotic cells ([2]; 0.05 or 0.1 μM, 24 hours): increase in the number of apoptotic cells
reduction of cell numbers (BT474 cells [3]; monolayer): fails to reduce HER2-positive breast cancer cell numbers significantly
Akt and Erk phosphorylation / downstream signaling [6]: inhibits both AKT and ERK phosphorylation
rescue from growth inhibition by NRG1 ([7]; 50 ng/ml of NRG1, 3 days): NRG1 application is able to rescue
cell growth suppression ([7]; drug without growth factor, 3 days): potently suppresses cell growth
G1-S arrest ([4]; 24 hours): appreciable G1-S arrest
drug resistance after NRG1 co-treatment (BT474 cells [8]): yields cells that exhibit lapatinib resistance
drug resistance after NRG1 co-treatment (SKBR3 cells [9]): yields cells that exhibit lapatinib resistance
potency in SKBR3 tumor xenograft compared with ibrutinib 12 mg/kg/day (xenografts of SKBR3; lapatinib 75 mg/kg/day p.o.): less potent

C/C(O)=C(\C#N)C(=O)Nc1cc(Br)ccc1Br [LFM-A13]
apoptosis levels (breast cancer cells): increase apoptosis levels

C=CC(=O)Nc1cccc(Nc2nc(Nc3ccc(OCCOC)cc3)ncc2F)c1 [AVL-292, N-(3-((5-fluoro-2((4-(2-methoxyethoxy)phenyl)amino)pyrimidin-4-yl)amino)phenyl)acrylamide]
phosphorylation (activation) of EGFR family [6]: does not block EGFR family signaling pathway activation
BTK-C activating phosphorylation (BTK-C; FIG. 8C): inhibit BTK-C activating phosphorylation
inhibition of BTK-C kinase activity (BTK-C; compared with ibrutinib): inhibit BTK-C kinase activity to the same degree as ibrutinib

Reference: US10668068B2, “Treating cancer with drug combinations” (The Research Foundation for The State University of New York, priority 2015, dated 2020)
